Reference: ChEMBL document CHEMBL5726478, “Histone demethylase inhibitors” (2019)

Molecular target: T1, Lysine-specific demethylase 4C (Homo sapiens, UniProt Q9H3R0)
T1 sequence (Q9H3R0 whole entry): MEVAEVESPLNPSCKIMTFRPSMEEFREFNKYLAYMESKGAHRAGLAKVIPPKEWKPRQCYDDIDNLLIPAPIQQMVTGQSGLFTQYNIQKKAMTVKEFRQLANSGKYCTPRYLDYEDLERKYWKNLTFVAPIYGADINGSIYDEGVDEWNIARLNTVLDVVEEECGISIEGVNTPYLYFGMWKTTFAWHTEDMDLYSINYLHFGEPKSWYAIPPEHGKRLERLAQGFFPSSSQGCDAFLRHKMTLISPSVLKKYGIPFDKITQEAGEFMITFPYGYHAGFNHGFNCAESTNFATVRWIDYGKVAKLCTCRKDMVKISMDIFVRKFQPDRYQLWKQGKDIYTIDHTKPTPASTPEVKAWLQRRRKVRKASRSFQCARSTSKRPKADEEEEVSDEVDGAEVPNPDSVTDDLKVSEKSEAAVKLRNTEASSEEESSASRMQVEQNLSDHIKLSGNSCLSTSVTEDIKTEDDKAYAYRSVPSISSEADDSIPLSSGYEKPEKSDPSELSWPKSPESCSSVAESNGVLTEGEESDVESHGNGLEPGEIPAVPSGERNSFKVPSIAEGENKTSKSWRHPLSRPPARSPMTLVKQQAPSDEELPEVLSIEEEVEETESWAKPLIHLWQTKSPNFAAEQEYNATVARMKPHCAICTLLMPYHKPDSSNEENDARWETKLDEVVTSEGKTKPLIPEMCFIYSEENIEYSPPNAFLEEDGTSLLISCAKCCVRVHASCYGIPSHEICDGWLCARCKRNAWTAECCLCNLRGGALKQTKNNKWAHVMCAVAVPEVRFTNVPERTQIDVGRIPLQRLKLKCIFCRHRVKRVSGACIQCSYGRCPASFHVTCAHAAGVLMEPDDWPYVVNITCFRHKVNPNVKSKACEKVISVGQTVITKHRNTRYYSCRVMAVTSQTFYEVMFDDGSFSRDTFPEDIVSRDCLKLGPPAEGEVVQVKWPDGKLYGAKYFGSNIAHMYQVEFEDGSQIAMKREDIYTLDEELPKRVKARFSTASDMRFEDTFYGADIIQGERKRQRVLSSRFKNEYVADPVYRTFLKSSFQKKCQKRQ
Assay: JMJD2C Assay: The ability of test compounds to inhibit the activity of JMJD2C was determined in 384-well plate-format under the following reaction conditions: 0.3 nM JMJD2C, 300 nM H3K9me3-biotin labeled peptide (Anaspec cat #64360), 2 μM alpha-ketoglutaric acid in assay buffer of 50 mM HEPES, pH 7.3, 0.005% Brij35, 0.5 mM TCEP, 0.2 mg/ml BSA, 50 μM sodium L-ascorbate, and 2 μM ammonium iron(II) sulfate. Reaction product was determined quantitatively by TR-FRET after the addition of detection reagent Phycolink Streptavidin-allophycocyanin (Prozyme) and Europium-anti-di-methylated histone H3 lysine 9 (H3K9me2) antibody (PerkinElmer) in the presence of 5 mM EDTA in LANCE detection buffer (PerkinElmer) at a final concentration of 50 nM and 1 nM, respectively.The assay reaction was initiated by the following: 2 μl of the mixture of 900 nM H3K9me3-biotin labeled peptide and 6 μM alpha-ketoglutaric acid with 2 μl of 11-point serial diluted inhibitor in 3% DMSO were added to each well of the plate, followed by the addition of 2 μl of 0.9 nM JMJD2C to initiate the reaction. The reaction mixture was incubated at room temperature for 30 min, and terminated by the addition of 6 μl of 5 mM EDTA in LANCE detection buffer containing 100 nM Phycolink Streptavidin-allophycocyanin and 2 nM Europium-anti-H3K9me2 antibody. […]

IC50: < 100 nM
SMILES: CC(C)N1CCN(c2cccc(N(C)c3ccc(Oc4nc(O)c5ccncc5n4)cc3)c2)CC1
